Patent publication US20240374753A1, “USE OF AN AGONIST OF FORMYL PEPTIDE RECEPTORS 1 AND 2 FOR TREATING OCULAR INFLAMMATORY DISEASES” (ALLGENESIS BIOTHERAPEUTICS INC., priority 2023, published 2024)

Tests used:
[1] = test system: patients with dry eye disease; test: Safety and tolerability (TEAEs), Phase 1b study; assay type: in vivo, human; details: BID for 3 months, both formulations
[2] = Stabilisation/solubility of AG-80308 with HPβCD; assay type: physicochemical; details: storage or stress conditions
[3] = test system: patients with dry eye disease; test: Ocular surface disease index, Phase 1b study; assay type: in vivo, human; details: overall study summary
Method: (§1) A multicenter, double-masked, randomized, parallel-group Phase 1b study evaluating the safety, tolerability, and dose-response of AG-80308 ophthalmic solution administered twice daily for 3 months in 84 patients with dry eye disease was conducted. […] 2-Hydroxypropyl-beta-cyclodextrin (HPβCD) was used in formulations A and B. The efficacy measures included both signs (ocular surface staining, tear film breakup time, Schirmer's test, meibomian gland assessments) and symptoms (7-item visual analog scale (VAS) assessments: burning/stinging, itching, foreign body sensation, eye discomfort, eye dryness, photophobia, pain and ocular surface disease index).
(§2) In this study, a single eye drop (approximately 30 μL) of AG-80308 was administered BID (approximately 12 hours apart) to the study eye every day until the Day 84 visit.

[4] = test system: patients with dry eye disease; test: Corneal fluorescein staining (NEI Scale), Phase 1b study; assay type: in vivo, human; details: for Corneal staining, unit improvement from baseline: p<0.05
Method: as §1, §2
Corneal fluorescein staining was assessed in each eye at Visit 1 (Day −30 to Day −2), Visit 2 (Day 1), Visit 4 (Day 43), and Visit 5 (Day 84) using the NEI Scale. The NEI Scale uses a standardized grading system of 0 to 3 using whole number units for each of the […] areas on each cornea. Grade 0 was specified when no staining is present.

[5] = Preclinical studies; assay type: in vivo
[6] = test system: patients with dry eye disease; test: 7-item VAS symptom assessment, Phase 1b study; assay type: in vivo, human; details: overall study summary
Method: as §1, §2
The VAS symptom assessment was performed at Visit 1 (Day −30 to Day −2), Visit 2 (Day 1), Visit 3 (Day 15), Visit 4 (Day 43), and Visit 5 (Day 84). Subjects were asked to rate each ocular symptom, unrelated to study drug instillation, by placing a vertical mark on the horizontal line to indicate the level of discomfort. Zero millimeters (mm) corresponds to “no discomfort” and 100 mm corresponds to “maximal discomfort. The symptoms evaluated were burning/stinging, itching, foreign body sensation, eye discomfort, eye dryness, photophobia, and pain. […]

Structure (SMILES): CC(C)C[C@H](NC(=O)Nc1ccc(Br)cc1)C(=O)NCC(=O)O [AG-80308, {[(2S)-2-{[(4-bromophenyl)carbamoyl]amino}-4-methylpentanoyl]amino}acetic acid]
- Safety [1]: proven safe
- Effect of HPβCD on stability and solubility of AG-80308 [2]: increasing solubility of AG-80308 and its degradant, preventing precipitation
- Ocular surface disease index scores [3]: clinically meaningful unit reductions
- Corneal staining, unit improvement from baseline ([4]; Day 43, LS Mean±SE): −2.1±0.57
- Corneal staining, unit improvement from baseline ([4]; Day 84, LS Mean±SE): −2.7±0.57
- Corneal and conjunctival staining ([4]; overall study summary): clinically meaningful unit reductions
- Efficacy in preclinical studies [5]: rapid efficacy similar to steroids without any impairment of wound healing
- Safety and tolerability in preclinical studies [5]: wide margin of safety and tolerability
- 7-item visual analog scale for dry eye symptoms [6]: clinically meaningful unit reductions
